# Assay results reported in patent US12454494B2, “Process for the reduction of gas emission from farm manure” (Alzchem Trostberg GmbH, priority 2018, dated 2025).
# System: cattle liquid manure
# Experiment: Example 5: methane and CO2 emissions from cattle liquid manure during 170 days storage with Compositions 1, 2, 4, 5, 6
# Conditions: cf. Example 5
# Experimental: After stirring, the pH value and conductivity in the mixture were measured, and then the wide-neck container was immediately sealed tightly. An opening was drilled in the lid of the wide-neck container, in which a sealed gas storage bag (nominal volume 5.6 liters) was connected and in which the released gas volume was collected. This structure prevented atmospheric oxygen from entering the wide-neck container. This prevented CO2 from the air from falsifying the measurement results. The mixture was stored for exactly 170 days without stirring or agitation at a temperature of 23±1° C. and at an air pressure of 960 to 980 hPa and at 493 m above standard sea level (NHN). At regular intervals, the filled gas storage bag was exchanged, the stored gas volume was determined volumetrically, and the gas composition was analyzed by gas chromatography. […] After stirring, the pH value and conductivity in the mixture were measured, and then the wide-neck container was immediately sealed tightly. […] At regular intervals, the filled gas storage bag was exchanged, the stored gas volume was determined volumetrically, and the gas composition was analyzed by gas chromatography. […] After stirring, the pH value and conductivity in the mixture were measured, and then the wide-neck container was immediately sealed tightly. […]
row,Structure (SMILES),Effect alone on the emission of methane and carbon dioxide
1,O=C([O-])[O-].[Ca+2] [calcium carbonate],no impact
2,[Ca+2].[OH-].[OH-] [calcium hydroxide],additional effect
